Measured values reported in ChEMBL document CHEMBL1201862, “PubChem BioAssay data set” (2004).
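Grown in 96-well plates, cells were treated for 48 hours with each compound at five concentrations. Insufficient inhibition: endpoint recorded as highest concentration tested. GI50: concentration for 50% inhibition of growth.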 Active and inactive are the calls of the source. Cut-off read from the data, not from the text of the source: active = GI50 up to about 1.1 µM and inactive = higher.

Legend:
Test in all cases: NCI-60 cell line screen, 48 h
786-0 = system: 786-0
A498 = system: A498
BT-549 = system: BT-549
COLO 205 = system: COLO 205
DU-145 = system: DU-145
HOP-62 = system: HOP-62
IGROV-1 = system: IGROV-1
M14 = system: M14
MDA-MB-231 = system: MDA-MB-231
NCI-H23 = system: NCI-H23
NCI/ADR-RES = system: NCI/ADR-RES
OVCAR-5 = system: OVCAR-5
OVCAR-8 = system: OVCAR-8
SK-MEL-2 = system: SK-MEL-2
SN12C = system: SN12C
SW-620 = system: SW-620
T47D = system: T47D
U-251 = system: U-251
HOP-92 = system: HOP-92
NCI-H460 = system: NCI-H460

Row | Compound | GI50 (786-0) | GI50 (A498) | GI50 (BT-549) | GI50 (COLO 205) | GI50 (DU-145) | GI50 (HOP-62) | GI50 (IGROV-1) | GI50 (M14) | GI50 (MDA-MB-231) | GI50 (NCI-H23) | GI50 (NCI/ADR-RES) | GI50 (OVCAR-5) | GI50 (OVCAR-8) | GI50 (SK-MEL-2) | GI50 (SN12C) | GI50 (SW-620) | GI50 (T47D) | GI50 (U-251) | GI50 (HOP-92) | GI50 (NCI-H460)
1 | [O-][n+]1cn[n+]([O-])c2ccccc21 | 14.6 µM (inactive) | 61.4 µM (inactive) | 23.7 µM (inactive) | 19.2 µM (inactive) | 63.1 µM (inactive) | 17.9 µM (inactive) | 11.2 µM (inactive) | 23.8 µM (inactive) | 14.3 µM (inactive) | 65.3 µM (inactive) | 23.5 µM (inactive) | > 100 µM (inactive) | 18.9 µM (inactive) | 27.4 µM (inactive) | 38.3 µM (inactive) | 6.82 µM (inactive) | 5.97 µM (inactive) | 32.4 µM (inactive) | – | –
2 | OC[C@H]1CC(c2nn[nH]n2)[C@H](O)[C@@H]1O (stereo not given in full) | > 100 µM (inactive) | > 100 µM (inactive) | > 100 µM (inactive) | > 100 µM (inactive) | > 100 µM (inactive) | > 100 µM (inactive) | > 100 µM (inactive) | > 100 µM (inactive) | > 100 µM (inactive) | > 100 µM (inactive) | > 100 µM (inactive) | > 100 µM (inactive) | > 100 µM (inactive) | – | > 100 µM (inactive) | > 100 µM (inactive) | > 100 µM (inactive) | > 100 µM (inactive) | > 100 µM (inactive) | > 100 µM (inactive)
3 | CCc1n[nH]c(=O)n1O | > 100 µM (inactive) | > 100 µM (inactive) | > 100 µM (inactive) | > 100 µM (inactive) | > 100 µM (inactive) | > 100 µM (inactive) | > 100 µM (inactive) | – | > 100 µM (inactive) | > 100 µM (inactive) | > 100 µM (inactive) | – | > 100 µM (inactive) | > 100 µM (inactive) | > 100 µM (inactive) | > 100 µM (inactive) | > 100 µM (inactive) | > 100 µM (inactive) | 0.0738 µM (active) | –
4 | COc1ccc2c(c1)OCC1(O)Cc3ccccc3OC21 (stereo not given) | > 100 µM (inactive) | > 100 µM (inactive) | > 100 µM (inactive) | > 100 µM (inactive) | > 100 µM (inactive) | > 100 µM (inactive) | > 100 µM (inactive) | > 100 µM (inactive) | > 100 µM (inactive) | > 100 µM (inactive) | > 100 µM (inactive) | > 100 µM (inactive) | > 100 µM (inactive) | > 100 µM (inactive) | > 100 µM (inactive) | > 100 µM (inactive) | > 100 µM (inactive) | > 100 µM (inactive) | > 100 µM (inactive) | –
5 | O=C1C=CC(=O)N1n1c(-c2ccccc2)n[nH]c1=O | > 100 µM (inactive) | > 100 µM (inactive) | > 100 µM (inactive) | > 100 µM (inactive) | > 100 µM (inactive) | > 100 µM (inactive) | > 100 µM (inactive) | > 100 µM (inactive) | > 100 µM (inactive) | > 100 µM (inactive) | > 100 µM (inactive) | > 100 µM (inactive) | > 100 µM (inactive) | > 100 µM (inactive) | > 100 µM (inactive) | – | > 100 µM (inactive) | > 100 µM (inactive) | – | > 100 µM (inactive)
6 | O=C1C2CC=CCC2C(=O)N1n1c(Cc2ccc(Cl)cc2)n[nH]c1=O (stereo not given) | > 100 µM (inactive) | > 100 µM (inactive) | > 100 µM (inactive) | > 100 µM (inactive) | > 100 µM (inactive) | > 100 µM (inactive) | > 100 µM (inactive) | > 100 µM (inactive) | > 100 µM (inactive) | > 100 µM (inactive) | > 100 µM (inactive) | > 100 µM (inactive) | > 100 µM (inactive) | > 100 µM (inactive) | > 100 µM (inactive) | > 100 µM (inactive) | > 100 µM (inactive) | > 100 µM (inactive) | > 100 µM (inactive) | –
7 | O=C(O)Cn1cc([N+](=O)[O-])c(=O)c2ccccc21 | > 100 µM (inactive) | > 100 µM (inactive) | > 100 µM (inactive) | 19.5 µM (inactive) | 57 µM (inactive) | > 100 µM (inactive) | > 100 µM (inactive) | > 100 µM (inactive) | 18.8 µM (inactive) | > 100 µM (inactive) | > 100 µM (inactive) | > 100 µM (inactive) | > 100 µM (inactive) | > 100 µM (inactive) | > 100 µM (inactive) | > 100 µM (inactive) | 18.8 µM (inactive) | > 100 µM (inactive) | – | > 100 µM (inactive)
8 | Cc1ccc2c(O)cc(-c3sc4ccccc4c3C)nc2n1 | 20.5 µM (inactive) | 22.4 µM (inactive) | 16.9 µM (inactive) | 23.4 µM (inactive) | 22.9 µM (inactive) | 25.1 µM (inactive) | 19.8 µM (inactive) | 17.5 µM (inactive) | 49.5 µM (inactive) | – | 17.1 µM (inactive) | 34 µM (inactive) | 25.2 µM (inactive) | 37 µM (inactive) | 29 µM (inactive) | – | 14.5 µM (inactive) | – | 4.46 µM (inactive) | –
